Laboratory results published in paper PMC9304322, “Targeting retinoic acid receptor alpha-corepressor interaction activates chaperone-mediated autophagy and protects against retinal degeneration” (Nature Communications, 2022).
“And” between values parts separate entries of the source, which are not always exact repeats. Equal entries are not always repeated.

Legend:
[1] = test system: CMA network components in NIH3T3 cells; assay: qPCR of CMA network components and CMA activation score; type: cell-based, mouse; design: LAMP2A mRNA level / HSP90AB1 mRNA level / HSP40 mRNA level / RAC1 mRNA level / AKT1 mRNA level / AKT2 mRNA level / CTSA mRNA level / NFATC1 mRNA level / HSC70 mRNA level / NCOR1 mRNA level / NFE2L2 mRNA level / RAB11A mRNA level / RARa mRNA level / HSP90AA1 mRNA level / EEF1A1 mRNA level / RICTOR mRNA level: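 fold of untreated cells after 20 µM for 24 h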; key to CMA activation score: weighted (LAMP-2A ×2), directed (±1) average of CMA network expression;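 as to AKT1 mRNA level: fold of untreated cells after 20 µM for 24 h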;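 as to AKT2 mRNA level: fold of untreated cells after 20 µM for 24 h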;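 as to CTSA mRNA level: fold of untreated cells after 20 µM for 24 h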;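 as to HSC70 mRNA level: fold of untreated cells after 20 µM for 24 h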;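 as to HSP40 mRNA level: fold of untreated cells after 20 µM for 24 h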;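 as to HSP90AA1 mRNA level: fold of untreated cells after 20 µM for 24 h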;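 as to HSP90AB1 mRNA level: fold of untreated cells after 20 µM for 24 h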;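 as to LAMP2A mRNA level: fold of untreated cells after 20 µM for 24 h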;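 as to NCOR1 mRNA level: fold of untreated cells after 20 µM for 24 h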;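 as to NFATC1 mRNA level: fold of untreated cells after 20 µM for 24 h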;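 as to NFE2L2 mRNA level: fold of untreated cells after 20 µM for 24 h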;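 as to PHLPP1 mRNA level: fold of untreated cells after 20 µM for 24 h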;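 as to RAB11A mRNA level: fold of untreated cells after 20 µM for 24 h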;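 as to RAC1 mRNA level: fold of untreated cells after 20 µM for 24 h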;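 as to RARa mRNA level: fold of untreated cells after 20 µM for 24 h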
Description: RNA was extracted from individual retinas or tissue sections (brain, liver). Total RNA from retinas was extracted using TRIzol Reagent (Invitrogen, # 15596-018), and reverse transcription was performed using the High-Capacity cDNA Reverse Transcription Kit (Applied Biosystems, # 4374966) according to the manufacturer’s instructions. Quantitative real-time PCR was performed in a Light Cycler 480 Instrument (Roche) with Taqman LightCycler 480 probes Master Mix (Roche, #4887301001) using Taqman assays (Life Technologies). For cells in culture, RNA was extracted using RNeasy Plus Mini Kit (Qiagen, #74034), and reverse transcription was performed using Superscript III (Invitrogen, #18080051). Quantitative RT-PCR analysis were performed using Power SYBR Green PCR Master Mix (Applied Biosystems, #4368708) on a StepOne Plus Real-Time PCR System (Applied Biosystems). Mm01184405_m1 probe (Thermofisher) was used for rhodopsin and the sequence of all the other probes used for qPCR is included in Supplementary Table 2.
CMA index[14] was calculated using data set from[23]–[25]. Briefly, each element of the CMA network[13] has attributed a weight. As LAMP-2A is the rate-limiting component of CMA, it was given a weight of 2. Every other element received a weight of 1. Then, every element was attributed direction score that is +1 or −1 based on the known effect of a given element on CMA activity. The score was then calculated as the weighted/ directed average of expression counts of every element of the CMA network.

[2] = test system: NIH3T3 cells stably expressing the mCherry-GFP-LC3 reporter; assay: Macroautophagy activity, mCherry-GFP-LC3 reporter; type: cell-based, mouse
Description: Cells were transduced with a lentiviral vector expressing mCherry-GFP-LC3[35], fixed and flux determined as the conversion of dual fluorescence puncta (autophagosomes) into only red fluorescent puncta (autolysosomes). Flux was also measured by immunoblot for LC3 in cells incubated for 6 h with 20 mM NH4Cl/100 μM leupeptin, by discounting the intensity of LC3 in non-treated cells from that in cells treated with the inhibitors.

[3] = test system: primary human fibroblast expressing the KFERQ-PS-Dendra reporter; assay: CMA activity, KFERQ-PS-Dendra reporter in primary human fibroblasts; type: cell-based; design: key to CMA activity, mean (Fig. S2c): puncta per cell
Description: Cells were transduced with lentivirus carrying the KFERQ-PS-Dendra reporter as before. Cells were photoactivated by exposure to a 3.5 mA (current constant) light emitting diode (LED: Norlux, 405 nm) for 3 min and then plated in glass-bottom 96 well plates. At the desired times, cells were fixed with 4% PFA and imaged using high-content microscopy (Operetta system, Perkin Elmer). Images were quantified using the manufacturer’s software in a minimum of 1,200 cells in 9 independent fields per well. […] This was particularly important in the case of primary human cells where the efficiency of transduction was ~65%. To avoid confounding effects for drug-induced changes in cell volume or adherence to the plate that could bring a fraction of the cells per field outside of focus, we set a threshold to count only […] that have at least 1/10 of the average number of […] detected in the untreated wells for each cell type (3–4 puncta/cell in the case of NIH3T3 and N2a cells and 5 puncta/cell in primary human fibroblasts).

NIH3T3 = assay: Intracellular proteolysis of long half-life proteins; type: cell-based, mouse
Description: Confluent cells were labelled with [^3H]leucine (2μCi/ml) (NEN-PerkinElmer Life Sciences) for 48 h and then extensively washed and maintained in medium with an excess of unlabeled leucine. Proteolysis was calculated from aliquots of the medium taken at different times and precipitated in trichloroacetic acid, as the amount of acid-precipitable radioactivity transformed to acid-soluble radioactivity at each time. Where indicated cell were treated during the chase with […] leupeptin (Sigma, #108975) and […] NH4Cl (to determine lysosomal degradation) or with 100 μm MRT 68921 dihydrochloride (Tocris, #5780) (to determine macroautophagy degradation).

[4] = Pharmacokinetic analysis, plasma and brain;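 as to Fig. 3a level, single animals 1-3: plasma concentration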;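 as to Fig. 3b level, single animals 1-3: brain concentration in ng/g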; type: in vivo, ICR (CD-1) male mice; design: Fig. 3a level, single animals 1-3 / Fig. 3b level, single animals 1-3: unit not given here
[5] = Fig. 2d (left), individual replicate values, one sample t test
[6] = c0 = 2 (axis unlabelled; ANOVA calls row factor Time)

**Q.** Which “AKT1 mRNA level” value [1, 5] does the source give for Clc1ccc2c(c1)OCC(c1ccc(-c3ccccc3)cc1)=N2 [CA39] here?
**A.** 1.27 and 1.30 and 1.45 and 1.16 and 1.03 and 1.84 and 1.28

**Q.** And the “AKT2 mRNA level” value [1, 5]?
**A.** 1.32 and 1.30 and 1.24 and 1.01 and 1.08 and 1.88 and 1.04

**Q.** What about the “CTSA mRNA level” value [1, 5] of the same molecule?
**A.** 1.42 and 1.82 and 1.76 and 1.16 and 1.21 and 1.47 and 1.18

**Q.** What about the “EEF1A1 mRNA level” value [1, 5] of the same molecule?
**A.** 1.63 and 1.19 and 0.99 and 1.36 and 0.64 and 1.12

**Q.** What about the “HSC70 mRNA level” value [1, 5] of the same molecule?
**A.** 1.22 and 1.61 and 1.44 and 1.21 and 1.29 and 2.10 and 1.42

**Q.** And the “HSP40 mRNA level” value [1, 5]?
**A.** 1.09 and 1.23 and 1.16 and 0.96 and 0.74 and 1.03

**Q.** And the “HSP90AA1 mRNA level” value [1, 5]?
**A.** 1.17 and 1.01 and 0.95 and 0.86 and 0.74 and 0.72

**Q.** What about the “HSP90AB1 mRNA level” value [1, 5] of the same molecule?
**A.** 1.00 and 0.99 and 0.98 and 1.04 and 0.83 and 0.75

**Q.** And the “LAMP2A mRNA level” value [1, 5]?
**A.** 1.75 and 1.44 and 1.56 and 1.42 and 1.32 and 1.48

**Q.** What about the “NCOR1 mRNA level” value [1, 5] of the same molecule?
**A.** 1.09 and 1.39 and 1.22 and 0.82 and 0.71 and 0.95 and 0.89

**Q.** What about the “NFATC1 mRNA level” value [1, 5] of the same molecule?
**A.** 1.14 and 1.53 and 1.30 and 0.80 and 1.03 and 1.25 and 1.28

**Q.** And the “NFE2L2 mRNA level” value [1, 5]?
**A.** 0.96 and 1.16 and 1.02 and 0.72 and 0.80 and 1.15 and 1.10

**Q.** And the “PHLPP1 mRNA level” value [1, 5]?
**A.** 1.27 and 1.65 and 1.69 and 3.21 and 1.20 and 1.48 and 1.51

**Q.** And the “RAB11A mRNA level” value [1, 5]?
**A.** 1.05 and 1.19 and 0.95 and 0.84 and 1.00 and 1.21 and 1.07

**Q.** What about the “RAC1 mRNA level” value [1, 5] of the same molecule?
**A.** 1.38 and 1.77 and 1.43 and 1.78 and 1.31 and 1.54 and 1.42

**Q.** What about the “RARa mRNA level” value [1, 5] of the same molecule?
**A.** 0.55 and 1.08 and 1.05 and 0.89 and 0.84 and 0.93 and 0.88

**Q.** And the “RICTOR mRNA level” value [1, 5]?
**A.** 1.22 and 1.28 and 0.83 and 0.86 and 1.60 and 1.10

**Q.** What about the CMA activation score ([1]; Fig. 2d (right), individual replicate values) of the same molecule?
**A.** 0.6107 and 0.1532 and -0.08737 and 0.08765

**Q.** And the “predicted CMA score compared to AR7” value ([1]; NIH3T3, 20μM for 24 h)?
**A.** higher

**Q.** What about the effect on macroautophagy ([2]; NIH3T3, MRT-sensitive proteolysis, LC3-II flux, mCherry-GFP-LC3 reporter) of the same molecule?
**A.** did not have the inhibitory effect on macroautophagy

**Q.** And the “APG (Fig. S3e)” value [2, 6]?
**A.** 3.494

**Q.** And the “AUT (Fig. S3e)” value [2, 6]?
**A.** 0.8582

**Q.** And the “AV (Fig. S3e)” value [2, 6]?
**A.** 4.352

**Q.** What about the “APG (Fig. S3e)” value ([2]; c0 = 5 (axis unlabelled)) of the same molecule?
**A.** 2.288

**Q.** What about the “AUT (Fig. S3e)” value ([2]; c0 = 5 (axis unlabelled)) of the same molecule?
**A.** 1.522

**Q.** And the “AV (Fig. S3e)” value ([2]; c0 = 5 (axis unlabelled))?
**A.** 3.81

**Q.** What about the “APG (Fig. S3e)” value ([2]; c0 = 10 (axis unlabelled)) of the same molecule?
**A.** 2.801

**Q.** What about the “AUT (Fig. S3e)” value ([2]; c0 = 10 (axis unlabelled)) of the same molecule?
**A.** 1.622

**Q.** What about the “AV (Fig. S3e)” value ([2]; c0 = 10 (axis unlabelled)) of the same molecule?
**A.** 4.423

**Q.** And the “APG (Fig. S3e)” value ([2]; c0 = 15 (axis unlabelled))?
**A.** 3.21

**Q.** What about the “AUT (Fig. S3e)” value ([2]; c0 = 15 (axis unlabelled)) of the same molecule?
**A.** 1.42

**Q.** And the “AV (Fig. S3e)” value ([2]; c0 = 15 (axis unlabelled))?
**A.** 4.63

**Q.** What about the “APG (Fig. S3e)” value ([2]; c0 = 20 (axis unlabelled)) of the same molecule?
**A.** 2.614

**Q.** What about the “AUT (Fig. S3e)” value ([2]; c0 = 20 (axis unlabelled)) of the same molecule?
**A.** 2.2085

**Q.** What about the “AV (Fig. S3e)” value ([2]; c0 = 20 (axis unlabelled)) of the same molecule?
**A.** 4.823

**Q.** What about the “APG (Fig. S3e)” value ([2]; c0 = 25 (axis unlabelled)) of the same molecule?
**A.** 2.9327

**Q.** What about the “AUT (Fig. S3e)” value ([2]; c0 = 25 (axis unlabelled)) of the same molecule?
**A.** 2.406

**Q.** And the “AV (Fig. S3e)” value ([2]; c0 = 25 (axis unlabelled))?
**A.** 5.339

**Q.** What about the “APG (Fig. S3e)” value ([2]; c0 = 30 (axis unlabelled)) of the same molecule?
**A.** 1.904

**Q.** What about the “AUT (Fig. S3e)” value ([2]; c0 = 30 (axis unlabelled)) of the same molecule?
**A.** 2.071

**Q.** What about the “AV (Fig. S3e)” value ([2]; c0 = 30 (axis unlabelled)) of the same molecule?
**A.** 3.975

**Q.** What about the “APG (Fig. S3e)” value ([2]; c0 = 40 (axis unlabelled)) of the same molecule?
**A.** 3.037

**Q.** And the “AUT (Fig. S3e)” value ([2]; c0 = 40 (axis unlabelled))?
**A.** 2.167

**Q.** What about the “AV (Fig. S3e)” value ([2]; c0 = 40 (axis unlabelled)) of the same molecule?
**A.** 5.204

**Q.** And the “APG (Fig. S3e)” value ([2]; c0 = 50 (axis unlabelled))?
**A.** 3.658

**Q.** What about the “AUT (Fig. S3e)” value ([2]; c0 = 50 (axis unlabelled)) of the same molecule?
**A.** 0.5267

**Q.** And the “AV (Fig. S3e)” value ([2]; c0 = 50 (axis unlabelled))?
**A.** 4.185

**Q.** And the “CMA activity, mean (Fig. S2c)” value ([3]; concentration 0.02)?
**A.** 24.0456

**Q.** What about the “CMA activity, mean (Fig. S2c)” value ([3]; concentration 0.2) of the same molecule?
**A.** 28.2677

**Q.** What about the “CMA activity, mean (Fig. S2c)” value ([3]; concentration 2) of the same molecule?
**A.** 18.5469

**Q.** What about the “CMA activation in human cells” value ([3]; in words) of the same molecule?
**A.** efficiently activated CMA

**Q.** And the “duration of the increase in degradation of long-lived proteins” value (NIH3T3; NIH3T3, 10 μM)?
**A.** remained upregulated 24 h

**Q.** And the “Lysosomal proteolysis, Mean (Fig. S3c)” value (NIH3T3; Time 6)?
**A.** 2.60

**Q.** What about the “Lysosomal proteolysis, Mean (Fig. S3c)” value (NIH3T3; Time 12) of the same molecule?
**A.** 7.36

**Q.** And the “Fig. 3a level, single animals 1-3” value ([4]; IV, Time 0.083 h)?
**A.** 52.0116 and 70.6516 and 60.713

**Q.** What about the “Fig. 3b level, single animals 1-3” value ([4]; IV, Time 0.083 h) of the same molecule?
**A.** 52.0116 and 70.6516 and 60.713

**Q.** And the predicted brain concentration ([4]; intraperitoneal 30 mg/kg bw, converted from Cmax or AUC (CA39: AUC and extended half-life))?
**A.** 10 to 20 µM
